Assays:
Assay type in all cases: functional
[1] = target: T1, Putative uncharacterized protein pk7 (Plasmodium falciparum, UniProt O96214); assay: Final concentrations were 1 uM ATP, 2 mM DTT, 20 mM MgCl2, 2 mM MnCl2, 0.01% BSA, and 6 ug/ml PK7, in a buffer of 20 mM Tris-HCl (pH 7.5). The enzyme itself was the only substrate present (since autophosphorylation occurs); 100 uM 1NA-PP1 was used as a control inhibitor. Incubation time was 3 hours.
T1 sequence (O96214 whole entry): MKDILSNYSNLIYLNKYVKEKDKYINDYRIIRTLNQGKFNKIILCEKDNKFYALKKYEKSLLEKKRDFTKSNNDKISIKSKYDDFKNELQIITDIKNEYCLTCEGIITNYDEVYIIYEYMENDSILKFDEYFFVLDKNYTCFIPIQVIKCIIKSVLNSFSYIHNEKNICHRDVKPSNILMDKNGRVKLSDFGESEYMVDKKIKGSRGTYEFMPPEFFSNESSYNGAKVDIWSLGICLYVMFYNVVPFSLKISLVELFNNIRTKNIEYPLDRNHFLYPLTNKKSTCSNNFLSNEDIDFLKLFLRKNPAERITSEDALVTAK

[2] = target: T2, Cdk-related protein kinase 6 (Plasmodium falciparum, UniProt O77239); assay: Final concentrations were 1.5 uM ATP, 5 mM MnCl2, and 15 ug/ml PK6 in a buffer of 100 mM Tris-HCl (pH 7.5). 50 ug/mL MBP was provided as the substrate; 10 uM staurosporine was used as a control inhibitor. Incubation time was 3 hours and 40 minutes.The catalytic activity of each kinase was considered proportional to ATP consumed, as determined from measurements of residual [ATP] with the luciferase-based reagent Kinase-Glo (Promega) following incubation. Luminescence (proportional to residual [ATP]) was measured on the plate readers FLx800 (BioTek Instruments, Winooski, VT, USA) and MicroBeta2.
T2 sequence (O77239 whole entry): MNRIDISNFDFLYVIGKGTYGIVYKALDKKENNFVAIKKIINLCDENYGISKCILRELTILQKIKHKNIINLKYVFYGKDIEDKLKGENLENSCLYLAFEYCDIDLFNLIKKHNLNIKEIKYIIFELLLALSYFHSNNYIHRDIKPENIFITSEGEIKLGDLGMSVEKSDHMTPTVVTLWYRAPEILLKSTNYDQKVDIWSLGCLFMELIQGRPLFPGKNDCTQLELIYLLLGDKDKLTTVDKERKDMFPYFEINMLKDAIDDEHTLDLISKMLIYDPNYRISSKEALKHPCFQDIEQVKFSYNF

[3] = target: T3, Calcium-dependent protein kinase 4 (Plasmodium falciparum (isolate 3D7), UniProt Q8IBS5); assay: MMV: CDPK4 Protein kinase inhibition assay using recombinant PfCDPK4, syntide2 peptide substrate, ATP and KinaseGlo to measure % inhibition at 1 uM MMV box compound.
T3 sequence (Q8IBS5 whole entry): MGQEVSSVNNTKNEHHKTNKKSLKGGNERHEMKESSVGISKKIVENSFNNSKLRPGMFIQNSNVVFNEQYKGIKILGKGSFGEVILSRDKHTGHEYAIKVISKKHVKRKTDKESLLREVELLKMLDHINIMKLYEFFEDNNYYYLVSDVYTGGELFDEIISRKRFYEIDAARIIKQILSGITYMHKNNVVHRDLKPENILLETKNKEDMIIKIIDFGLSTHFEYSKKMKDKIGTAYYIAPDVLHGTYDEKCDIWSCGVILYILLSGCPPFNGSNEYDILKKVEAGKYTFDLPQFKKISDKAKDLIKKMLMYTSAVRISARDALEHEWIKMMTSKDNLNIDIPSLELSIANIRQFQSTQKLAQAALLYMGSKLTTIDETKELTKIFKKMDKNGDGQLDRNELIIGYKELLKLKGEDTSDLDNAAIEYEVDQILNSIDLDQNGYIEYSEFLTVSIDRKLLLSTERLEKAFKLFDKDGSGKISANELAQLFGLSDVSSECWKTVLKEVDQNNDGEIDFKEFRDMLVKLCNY

[4] = target: Calcium-dependent protein kinase 1 (Plasmodium falciparum, UniProt P62344); assay: MMV: CDPK1 Protein kinase inhibition assay using recombinant PfCDPK1, syntide 2 peptide substrate, ATP and KinaseGlo to measure % inhibition at 1 uM MMV box compound.
Lysine--tRNA ligase = Lysine--tRNA ligase (Plasmodium falciparum (isolate 3D7), UniProt Q8IDJ8); assay: MMV: KRS recombinant Plasmodium falciparum Lysyl-tRNA-synthetase, assay with yeast tRNA, ATP, and lysine and 3 uM MMV malaria box compound, assay read out with kinase glo as % inhibition.
[5] = target: T4, Mitogen-activated protein kinase (Plasmodium falciparum, UniProt Q25917); assay: Final concentrations were 1 uM ATP, 0.5 mM DTT, 1 mM MgCl2, 0.5 mg/mL BSA, and 10 ug/ml MAP2 in a buffer of 50 mM HEPES (pH 7.0). 0.5 mg/mL histone III-S served as the substrate (13); 100 uM AMP-PNP, an ATP analog, was used as a control inhibitor. Incubation time was 4 hours.
T4 sequence (Q25917 whole entry): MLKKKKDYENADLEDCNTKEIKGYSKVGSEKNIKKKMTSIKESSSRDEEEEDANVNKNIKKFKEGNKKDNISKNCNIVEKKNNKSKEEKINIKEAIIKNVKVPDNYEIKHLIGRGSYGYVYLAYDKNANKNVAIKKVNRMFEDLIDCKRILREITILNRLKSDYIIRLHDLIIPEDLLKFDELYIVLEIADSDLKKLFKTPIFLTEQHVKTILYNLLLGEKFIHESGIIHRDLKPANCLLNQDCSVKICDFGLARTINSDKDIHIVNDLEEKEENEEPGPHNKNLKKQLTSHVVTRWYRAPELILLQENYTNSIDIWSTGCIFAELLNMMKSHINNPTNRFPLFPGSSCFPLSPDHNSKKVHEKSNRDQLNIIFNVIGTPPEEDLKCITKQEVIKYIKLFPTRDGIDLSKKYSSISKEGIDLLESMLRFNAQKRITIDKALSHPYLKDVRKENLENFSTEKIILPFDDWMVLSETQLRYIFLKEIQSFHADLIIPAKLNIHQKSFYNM

Proline--tRNA ligase = target: T5, Proline--tRNA ligase (Plasmodium falciparum (isolate 3D7), UniProt Q8I5R7); assay: MMV: ProRS recombinant Plasmodium falciparum Prolyl-tRNA-synthetase, assay with yeast tRNA, ATP, and proline and 3 uM MMV malaria box compound, assay read out with kinase glo as % inhibition.
T5 sequence (Q8I5R7 whole entry): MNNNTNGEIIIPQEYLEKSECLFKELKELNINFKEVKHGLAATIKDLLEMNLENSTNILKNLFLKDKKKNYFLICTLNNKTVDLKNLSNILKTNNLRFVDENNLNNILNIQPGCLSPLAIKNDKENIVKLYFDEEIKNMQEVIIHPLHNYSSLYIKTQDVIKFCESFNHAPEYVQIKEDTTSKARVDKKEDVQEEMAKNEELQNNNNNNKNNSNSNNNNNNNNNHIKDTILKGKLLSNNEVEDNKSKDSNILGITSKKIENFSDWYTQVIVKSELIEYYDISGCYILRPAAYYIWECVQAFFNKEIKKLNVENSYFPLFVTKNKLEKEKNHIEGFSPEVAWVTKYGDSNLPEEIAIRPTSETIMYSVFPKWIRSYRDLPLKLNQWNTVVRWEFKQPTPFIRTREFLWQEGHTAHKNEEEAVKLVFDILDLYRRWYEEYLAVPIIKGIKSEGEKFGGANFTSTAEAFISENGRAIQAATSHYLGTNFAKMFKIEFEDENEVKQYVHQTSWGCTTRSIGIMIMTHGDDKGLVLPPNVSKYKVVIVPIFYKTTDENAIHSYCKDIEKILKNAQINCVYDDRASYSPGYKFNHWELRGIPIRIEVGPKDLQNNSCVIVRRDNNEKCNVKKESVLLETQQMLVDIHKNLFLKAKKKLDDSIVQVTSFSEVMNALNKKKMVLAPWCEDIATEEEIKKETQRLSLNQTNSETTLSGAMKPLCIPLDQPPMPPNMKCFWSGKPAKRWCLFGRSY

Sequence of Lysine--tRNA ligase (Q8IDJ8 whole entry): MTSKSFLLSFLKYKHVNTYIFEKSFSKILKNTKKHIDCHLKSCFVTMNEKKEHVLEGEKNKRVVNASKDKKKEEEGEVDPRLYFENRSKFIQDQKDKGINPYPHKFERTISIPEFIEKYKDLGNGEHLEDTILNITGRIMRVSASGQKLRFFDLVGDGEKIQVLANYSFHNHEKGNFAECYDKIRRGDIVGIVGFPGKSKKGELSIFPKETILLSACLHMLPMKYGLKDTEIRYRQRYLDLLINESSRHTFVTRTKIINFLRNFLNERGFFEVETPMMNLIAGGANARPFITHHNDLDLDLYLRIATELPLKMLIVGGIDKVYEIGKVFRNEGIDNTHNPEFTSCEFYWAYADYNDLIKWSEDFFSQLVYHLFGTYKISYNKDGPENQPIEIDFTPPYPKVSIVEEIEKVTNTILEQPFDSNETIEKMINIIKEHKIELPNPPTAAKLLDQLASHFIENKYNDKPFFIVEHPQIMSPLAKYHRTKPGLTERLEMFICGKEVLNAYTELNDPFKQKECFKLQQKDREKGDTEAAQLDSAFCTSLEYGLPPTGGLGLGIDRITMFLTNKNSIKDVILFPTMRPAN
Sequence of Calcium-dependent protein kinase 1 (P62344 whole entry): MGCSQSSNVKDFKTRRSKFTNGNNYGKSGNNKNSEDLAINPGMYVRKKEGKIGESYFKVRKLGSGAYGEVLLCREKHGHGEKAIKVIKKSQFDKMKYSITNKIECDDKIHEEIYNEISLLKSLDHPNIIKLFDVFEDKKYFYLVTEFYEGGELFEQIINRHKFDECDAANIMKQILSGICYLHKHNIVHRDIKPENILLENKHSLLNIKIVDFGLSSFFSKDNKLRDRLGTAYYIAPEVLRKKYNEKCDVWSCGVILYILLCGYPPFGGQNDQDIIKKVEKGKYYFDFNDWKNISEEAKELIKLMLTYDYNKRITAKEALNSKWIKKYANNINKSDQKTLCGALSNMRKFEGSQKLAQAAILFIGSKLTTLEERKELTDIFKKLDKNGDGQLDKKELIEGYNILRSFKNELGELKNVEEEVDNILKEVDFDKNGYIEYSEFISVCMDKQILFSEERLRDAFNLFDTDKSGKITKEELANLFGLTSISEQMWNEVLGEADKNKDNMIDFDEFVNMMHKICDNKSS

Row | Compound | IC50 [1] | IC50 [2] | IC50 [3] | IC50 [4] | IC50 (Lysine--tRNA ligase) | IC50 [5] | IC50 (Proline--tRNA ligase)
1 | COc1ccc(-c2cc3c(nn2)-c2ccccc2C3=O)cc1 | > 1 µM | > 1 µM | > 1 µM | > 1 µM | > 2.5 µM | > 1 µM | > 2.5 µM
2 | c1ccc(/C2=N/c3ccccc3/N=C(/c3ccccc3)c3ccccc32)cc1 | > 1 µM | > 1 µM | > 1 µM | > 1 µM | > 2.5 µM | > 1 µM | > 2.5 µM
3 | COc1ccc(C2c3ccc4ccccc4c3Oc3ncn(CCCn4ccnc4)c(=N)c32)cc1OC (configuration not stated) | > 1 µM | > 1 µM | > 1 µM | > 1 µM | > 2.5 µM | > 1 µM | > 2.5 µM
4 | CN(N=O)C1=C(NC2CCCCC2)C(=O)c2ccccc2C1=O | > 1 µM | > 1 µM | > 1 µM | > 1 µM | > 2.5 µM | > 1 µM | > 2.5 µM
5 | COc1ccc(CN2CCCC(C(=O)c3ccc(C(F)(F)F)cc3)C2)c(O)c1 (configuration not stated) | > 1 µM | > 1 µM | > 1 µM | > 1 µM | > 2.5 µM | > 1 µM | > 2.5 µM
6 | CC(Oc1ccc(NC(=O)c2cccs2)cc1)C(=O)c1ccc(Cl)cc1 (configuration not stated) | > 1 µM | > 1 µM | > 1 µM | > 1 µM | > 2.5 µM | > 1 µM | > 2.5 µM
7 | Brc1ccc(Nc2nc3ccccc3nc2Nc2ccc(Br)cc2)cc1 | > 1 µM | > 1 µM | > 1 µM | > 1 µM | > 2.5 µM | > 1 µM | > 2.5 µM
8 | O=C(NC1CCN(Cc2ccccc2)CC1)c1cc(C(=O)NC2CCN(Cc3ccccc3)CC2)cc(C(=O)NC2CCN(Cc3ccccc3)CC2)c1 | > 1 µM | > 1 µM | > 1 µM | > 1 µM | > 2.5 µM | > 1 µM | > 2.5 µM
9 | COc1ccc(-c2cn3c(C(=O)Nc4ccccc4Cl)c(-c4ccccc4)c4c3n2CCCC4)cc1 | > 1 µM | > 1 µM | > 1 µM | > 1 µM | > 2.5 µM | > 1 µM | > 2.5 µM
10 | Cc1cc(Nc2ccc(OCc3ccccc3)cc2)nc2cc(O)ccc12 | > 1 µM | > 1 µM | > 1 µM | > 1 µM | > 2.5 µM | > 1 µM | > 2.5 µM
11 | CCN(CC)CCNc1ccnc2cc3ccccc3cc12 | > 1 µM | > 1 µM | > 1 µM | > 1 µM | > 2.5 µM | > 1 µM | > 2.5 µM
12 | N=c1c2ccccc2nnn1-c1cccc(C(F)(F)F)c1 | > 1 µM | > 1 µM | > 1 µM | > 1 µM | > 2.5 µM | > 1 µM | > 2.5 µM
13 | OC(Cn1nnc2ccccc21)Cn1c2ccc(Br)cc2c2cc(Br)ccc21 (configuration not stated) | > 1 µM | > 1 µM | > 1 µM | > 1 µM | > 2.5 µM | > 1 µM | > 2.5 µM
14 | CCOc1cc2c(cc1OCC)C(c1cc(Cl)ccc1O)NCC2 (configuration not stated) | > 1 µM | > 1 µM | > 1 µM | > 1 µM | > 2.5 µM | > 1 µM | > 2.5 µM
15 | Cc1ccc(-c2nc3ccccc3o2)cc1NCc1cc(Cc2ccccc2)ccc1O | > 1 µM | > 1 µM | > 1 µM | > 1 µM | > 2.5 µM | > 1 µM | > 2.5 µM
16 | O=C(Cc1ccccc1)NC(c1ccc(Cl)cc1)c1c(O)ccc2ccccc12 (configuration not stated) | > 1 µM | > 1 µM | > 1 µM | > 1 µM | > 2.5 µM | > 1 µM | > 2.5 µM
17 | Cc1cccc(N2C(=O)C3C(C2=O)C2(c4ccccc4)C(=O)C3(c3ccccc3)C(c3ccc4c(c3)OCO4)=C2c2ccc3c(c2)OCO3)c1 (configuration not stated) | > 1 µM | > 1 µM | > 1 µM | > 1 µM | > 2.5 µM | > 1 µM | > 2.5 µM
18 | CCCCCCc1cc2cc(-c3nc4ccccc4[nH]3)c(=Nc3ccccc3C)oc2cc1O | > 1 µM | > 1 µM | > 1 µM | > 1 µM | > 2.5 µM | > 1 µM | > 2.5 µM
19 | CC1CC2=C(CC1CNCCCN(C)C)C(C)(C)CCC2 (configuration not stated) | > 1 µM | > 1 µM | > 1 µM | > 1 µM | > 2.5 µM | > 1 µM | > 2.5 µM
20 | CN(C)c1ccc(N=Cc2ccc(N3CCOCC3)cc2)cc1 | > 1 µM | > 1 µM | > 1 µM | > 1 µM | > 2.5 µM | > 1 µM | > 2.5 µM
21 | CCCCc1c(CCC)c(=N)c2ccccc2n1C | > 1 µM | > 1 µM | > 1 µM | > 1 µM | > 2.5 µM | > 1 µM | > 2.5 µM

— ChEMBL document CHEMBL3301562, “MMV Box screening against Plasmodium falciparum protein kinases and aminoacyl tRNA synthetases”
